Source: patent publication US12171743B2, “Forms of aticaprant” (Janssen Pharmaceuticals, Inc., priority 2022, dated 2024)

Test system: subjects with MDD
Test: ASEX sexual functioning score
Assay type: in vivo, human
Text: As used herein, the term “decrease in sexual functioning” refers to reducing or lessening of one or more components of the human sex drive, i.e., sexual functioning. In some embodiments, the sexual functioning comprises one or more of sexual drive, sexual arousal, vaginal lubrication, erection, orgasm achievement, or orgasm satisfaction. In other embodiments, the sexual functioning comprises sexual drive. In further embodiments, the sexual functioning comprises vaginal lubrication satisfaction. In further embodiments, the sexual functioning comprises orgasm achievement. In yet other embodiments, the sexual functioning comprises orgasm satisfaction. Desirably, the patient's sexual functioning is assessed at the time of initial administration of the crystalline Form I of aticaprant, crystalline Form II of aticaprant, crystalline Form III of aticaprant, or amorphous aticaprant. Thus, the patient's sexual functioning while taking crystalline Form I of aticaprant, crystalline Form II of aticaprant, crystalline Form III of aticaprant, or amorphous aticaprant can be compared to the patient's sexual functioning before administration of crystalline Form I of aticaprant, crystalline Form II of aticaprant, crystalline Form III of aticaprant, or amorphous aticaprant. Sexual functioning may be assessed by using standard scales and techniques such as the Arizona Sexual Experience Scale (ASEX). The ASEX is used to investigate whether crystalline Form I of aticaprant, crystalline Form II of aticaprant, crystalline Form III of aticaprant, or amorphous aticaprant has a further positive or negative effect on sexual function. The ASEX is 5 item rating scale administered to patients that quantifies sexual drive, sexual arousal, vaginal lubrication or penile erection, ability to reach orgasm and satisfaction. Scores range from 5 to 30, and two different versions of the scale are available (males and females).
Patients had their sexual functioning measured using a standard, well accepted rating scale: ASEX. See, Table 68.

Cc1cc(C)cc(C2CCCN2Cc2ccc(Oc3ccc(C(N)=O)cc3F)cc2)c1 (stereo not drawn) [aticaprant, 3-fluoro-4-4-2-(3,5-dimethylphenyl) pyrrolidin-1-yl-methylphenoxybenzamide]
sexual functioning (in words) (ASEX): notable improvements | ASEX score (Baseline, n = 85): 21.26 | ASEX total score: mean change from treatment baseline (SD) (to week 6, lower score indicates improvement): −1.5 (4.02) points
